# Key:
# Experiment in all cases: Microbiological challenge testing in BPW broth, graded subculture counts
# Type in all cases: cell-based
# [1] = system: Burkholderia cepacia Wild type; conditions: B. cepacia
# In short: (§1)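 Serial 1:10 dilutions were made in pH 7.2 phosphate buffer and spread-plated onto PCA, and colonies were counted after 48 h or more at 35 °C. In the challenge, BPW–dextrose tubes containing the test material received inoculum at 10^5–10^6 CFU/mL at time zero. Controls without test material served as reference.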
# [2] = system: Staphylococcus aureus ATCC 25923; conditions: S. aureus
# In short: as §1
# Aeromonas sp. Wild type = system: Aeromonas sp. Wild type
# In short: as §1
# [3] = system: Staphylococcus epidermidis ATCC 12228
# In short: as §1
# [4] = system: Bacillus subtilis Wild type
# In short: as §1
# [5] = system: Streptococcus mutans ATCC 35668
# In short: as §1
compound,measurement,setting,value
"CCCCOCCO [EB, 2-butoxyethanol]",Grade,"[1]; 2.5% (wt/vol), 3 day","4 (1000 to 10,000 colonies countable (thus 10,000 CFU/mL to 100,000 CFU/mL))"
same,Grade,"[1]; 2.5% (wt/vol), 14 day","4 (1000 to 10,000 colonies countable (thus 10,000 CFU/mL to 100,000 CFU/mL))"
same,Grade,"[1]; 2.5% (wt/vol), 30 day","4 (1000 to 10,000 colonies countable (thus 10,000 CFU/mL to 100,000 CFU/mL))"
same,Grade,"[1]; 5.0% (wt/vol), 3 day",0
same,Grade,"[1]; 5.0% (wt/vol), 14 day",0
same,Grade,"[1]; 5.0% (wt/vol), 30 day",0
same,Grade,"[2]; 2.5% (wt/vol), 3 day","4 (1000 to 10,000 colonies countable (thus 10,000 CFU/mL to 100,000 CFU/mL))"
same,Grade,"[2]; 2.5% (wt/vol), 14 day","4 (1000 to 10,000 colonies countable (thus 10,000 CFU/mL to 100,000 CFU/mL))"
same,Grade,"[2]; 2.5% (wt/vol), 30 day","4 (1000 to 10,000 colonies countable (thus 10,000 CFU/mL to 100,000 CFU/mL))"
same,Grade,"[2]; 5.0% (wt/vol), 3 day",2 (52 to 100 colonies counted (thus 520 to 1000 CFU/mL))
same,Grade,"[2]; 5.0% (wt/vol), 14 day",0
same,Grade,"[2]; 5.0% (wt/vol), 30 day",0
same,"Aeromonas sp growth grade, 3 day",Aeromonas sp. Wild type; 2.5% weight/volume,"4 (1000 to 10,000 colonies countable (thus 10,000 CFU/mL to 100,000 CFU/mL))"
same,"Aeromonas sp growth grade, 14 day",Aeromonas sp. Wild type; 2.5% weight/volume,"4 (1000 to 10,000 colonies countable (thus 10,000 CFU/mL to 100,000 CFU/mL))"
same,"Aeromonas sp growth grade, 30 day",Aeromonas sp. Wild type; 2.5% weight/volume,"4 (1000 to 10,000 colonies countable (thus 10,000 CFU/mL to 100,000 CFU/mL))"
same,"Aeromonas sp growth grade, 3 day",Aeromonas sp. Wild type; 5.0% weight/volume,1 (0 to 51 colonies counted (thus 10 to 510 CFU/mL based on 0.1-mL sample))
same,"Aeromonas sp growth grade, 14 day",Aeromonas sp. Wild type; 5.0% weight/volume,0
same,"Aeromonas sp growth grade, 30 day",Aeromonas sp. Wild type; 5.0% weight/volume,0
same,"S. epidermidis growth grade, 3 day",[3]; 2.5% weight/volume,"4 (1000 to 10,000 colonies countable (thus 10,000 CFU/mL to 100,000 CFU/mL))"
same,"S. epidermidis growth grade, 13 day",[3]; 2.5% weight/volume,"4 (1000 to 10,000 colonies countable (thus 10,000 CFU/mL to 100,000 CFU/mL))"
same,"S. epidermidis growth grade, 30 day",[3]; 2.5% weight/volume,"4 (1000 to 10,000 colonies countable (thus 10,000 CFU/mL to 100,000 CFU/mL))"
same,"S. epidermidis growth grade, 3 day",[3]; 5.0% weight/volume,0
same,"S. epidermidis growth grade, 13 day",[3]; 5.0% weight/volume,0
same,"S. epidermidis growth grade, 30 day",[3]; 5.0% weight/volume,0
same,"B. subtillis growth grade, 3 day",[4]; 2.5% weight/volume,"4 (1000 to 10,000 colonies countable (thus 10,000 CFU/mL to 100,000 CFU/mL))"
same,"B. subtillis growth grade, 14 day",[4]; 2.5% weight/volume,"4 (1000 to 10,000 colonies countable (thus 10,000 CFU/mL to 100,000 CFU/mL))"
same,"B. subtillis growth grade, 30 day",[4]; 2.5% weight/volume,"4 (1000 to 10,000 colonies countable (thus 10,000 CFU/mL to 100,000 CFU/mL))"
same,"B. subtillis growth grade, 3 day",[4]; 5.0% weight/volume,1 (0 to 51 colonies counted (thus 10 to 510 CFU/mL based on 0.1-mL sample))
same,"B. subtillis growth grade, 14 day",[4]; 5.0% weight/volume,0
same,"B. subtillis growth grade, 30 day",[4]; 5.0% weight/volume,0
same,"S. mutans growth grade, 3 day",[5]; 2.5% weight/volume,"4 (1000 to 10,000 colonies countable (thus 10,000 CFU/mL to 100,000 CFU/mL))"
same,"S. mutans growth grade, 13 day",[5]; 2.5% weight/volume,"4 (1000 to 10,000 colonies countable (thus 10,000 CFU/mL to 100,000 CFU/mL))"
same,"S. mutans growth grade, 30 day",[5]; 2.5% weight/volume,"4 (1000 to 10,000 colonies countable (thus 10,000 CFU/mL to 100,000 CFU/mL))"
same,"S. mutans growth grade, 3 day",[5]; 5.0% weight/volume,0
same,"S. mutans growth grade, 13 day",[5]; 5.0% weight/volume,0
same,"S. mutans growth grade, 30 day",[5]; 5.0% weight/volume,0

# Reference: US20100160454A1, “ANTIMICROBIAL AGENTS, COMPOSITIONS AND PRODUCTS CONTAINING THE SAME, AND METHODS OF USING THE COMPOSITIONS AND PRODUCTS” (Eastman Chemical Company, priority 2008, published 2010)
